IC50, EC50 and AC50 data for six compounds are collected here from ChEMBL document CHEMBL1201862, “PubChem BioAssay data set” (2004).

In one test the target is T1, Aminopeptidase N (Plasmodium falciparum FcB1/Columbia, UniProt O96935).
T1 sequence (O96935 whole entry): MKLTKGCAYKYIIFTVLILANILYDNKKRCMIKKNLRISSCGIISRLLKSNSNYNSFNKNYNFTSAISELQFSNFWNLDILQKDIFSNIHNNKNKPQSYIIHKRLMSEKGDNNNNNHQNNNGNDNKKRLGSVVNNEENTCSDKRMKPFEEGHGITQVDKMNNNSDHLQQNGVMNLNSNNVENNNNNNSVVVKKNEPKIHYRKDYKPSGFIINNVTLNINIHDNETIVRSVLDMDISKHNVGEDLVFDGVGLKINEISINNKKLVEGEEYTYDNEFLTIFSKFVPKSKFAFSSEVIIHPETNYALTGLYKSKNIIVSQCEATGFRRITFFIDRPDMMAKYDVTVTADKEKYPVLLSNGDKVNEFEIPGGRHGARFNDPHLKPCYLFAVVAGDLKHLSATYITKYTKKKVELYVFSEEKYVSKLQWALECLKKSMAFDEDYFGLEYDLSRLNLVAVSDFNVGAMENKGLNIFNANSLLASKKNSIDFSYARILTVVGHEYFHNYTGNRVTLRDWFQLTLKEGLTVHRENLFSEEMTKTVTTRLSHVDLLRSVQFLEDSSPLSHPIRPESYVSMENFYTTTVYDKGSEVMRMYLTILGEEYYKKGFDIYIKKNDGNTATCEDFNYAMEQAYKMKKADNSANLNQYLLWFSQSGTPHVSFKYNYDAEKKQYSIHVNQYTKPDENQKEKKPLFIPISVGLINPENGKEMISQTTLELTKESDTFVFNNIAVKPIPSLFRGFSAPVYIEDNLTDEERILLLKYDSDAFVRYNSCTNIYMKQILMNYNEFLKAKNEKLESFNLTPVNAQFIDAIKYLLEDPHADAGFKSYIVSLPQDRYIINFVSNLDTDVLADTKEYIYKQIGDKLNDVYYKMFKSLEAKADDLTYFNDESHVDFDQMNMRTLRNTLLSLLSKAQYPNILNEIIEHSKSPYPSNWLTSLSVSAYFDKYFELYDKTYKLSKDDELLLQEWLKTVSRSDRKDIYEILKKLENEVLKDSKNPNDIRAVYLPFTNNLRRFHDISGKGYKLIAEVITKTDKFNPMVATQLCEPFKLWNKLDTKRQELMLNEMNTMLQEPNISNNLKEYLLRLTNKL
Description: P. falciparum M1AAP inhibitors, biochemical, fluorogenic H-Leu-NHMec substrate, 1536-well (AID 1445). More on the design: species or system Plasmodium falciparum 3D7, 3D7.

Test [1] concerns Streptococcus sp. 'group A'. Nature of the test: growth inhibition of control SK(-) GAS strain, dose response, counter-screen for streptokinase expression inhibitor project, luminescence, kanamycin, BacTiterGlo, confirmation (AID 1900). In kind it is functional, organism-based. In general terms: A counterscreen serves to expose hits that act by an unwanted route or on another target.

Test [2] has as its target Transitional endoplasmic reticulum ATPase (Homo sapiens, UniProt P55072, C522A). Nature of the test: C522A mutant p97 ATPase inhibitors, dose response, counter-screen for p97 inhibitor project, biochemical, luminescence (AID 1544).
In another test the target is T2, Streptokinase A (Streptococcus pyogenes serotype M1, UniProt P10520).
T2 sequence (P10520 whole entry): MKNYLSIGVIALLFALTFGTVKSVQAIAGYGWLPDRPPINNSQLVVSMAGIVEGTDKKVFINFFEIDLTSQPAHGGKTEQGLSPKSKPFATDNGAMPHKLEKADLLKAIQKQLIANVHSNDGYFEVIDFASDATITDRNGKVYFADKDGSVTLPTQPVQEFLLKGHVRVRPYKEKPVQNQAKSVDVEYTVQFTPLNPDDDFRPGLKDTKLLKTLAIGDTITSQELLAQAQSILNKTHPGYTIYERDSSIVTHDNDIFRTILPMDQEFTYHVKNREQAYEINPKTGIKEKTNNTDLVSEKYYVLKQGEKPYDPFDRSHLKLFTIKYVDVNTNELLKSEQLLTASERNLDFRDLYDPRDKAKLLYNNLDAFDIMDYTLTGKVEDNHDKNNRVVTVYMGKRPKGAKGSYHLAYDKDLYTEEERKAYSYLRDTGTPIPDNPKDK
Description: S. pyogenes streptokinase expression inhibitors, potency, dose response, plasminogen activation absorbance, OD405 (AID 1914).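 Also: secreted streptokinase activity via plasminogen activation per viability signal from cell pellet.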 Format: functional, Streptococcus pyogenes M1 GAS.

In test [3] the target is Transitional endoplasmic reticulum ATPase (Homo sapiens, UniProt P55072). Description: p97 ATPase inhibitors, dose response, biochemical (AID 1534).
For test [4], the target named is Induced myeloid leukemia cell differentiation protein Mcl-1 (Homo sapiens, UniProt Q07820). Format: functional.
In a further test the test system is Streptococcus. Description: Group A Streptococcus viability loss, dose response, counter-screen for streptokinase expression inhibitor project, luminescence, BacTiterGlo (AID 1915).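 Also: potency for reduction of bacterial viability or growth.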 In kind it is functional, organism-based.
For test [5], the target named is T3, Probable nicotinate-nucleotide adenylyltransferase (Staphylococcus aureus (strain N315), UniProt P65502). Format: functional, Staphylococcus aureus subsp. aureus N315.
The target of test [6] is T3, Probable nicotinate-nucleotide adenylyltransferase. In kind it is functional, Staphylococcus aureus subsp. aureus N315. The conditions noted are these: read-out: IC50_Mean.
A further test addresses Cytochrome P450 2C9 (Homo sapiens, UniProt P11712). The following applies: Potency.
In a further test the target is T4, Hexokinase HKDC1 (Homo sapiens, UniProt Q2TB90).
T4 sequence (Q2TB90 whole entry): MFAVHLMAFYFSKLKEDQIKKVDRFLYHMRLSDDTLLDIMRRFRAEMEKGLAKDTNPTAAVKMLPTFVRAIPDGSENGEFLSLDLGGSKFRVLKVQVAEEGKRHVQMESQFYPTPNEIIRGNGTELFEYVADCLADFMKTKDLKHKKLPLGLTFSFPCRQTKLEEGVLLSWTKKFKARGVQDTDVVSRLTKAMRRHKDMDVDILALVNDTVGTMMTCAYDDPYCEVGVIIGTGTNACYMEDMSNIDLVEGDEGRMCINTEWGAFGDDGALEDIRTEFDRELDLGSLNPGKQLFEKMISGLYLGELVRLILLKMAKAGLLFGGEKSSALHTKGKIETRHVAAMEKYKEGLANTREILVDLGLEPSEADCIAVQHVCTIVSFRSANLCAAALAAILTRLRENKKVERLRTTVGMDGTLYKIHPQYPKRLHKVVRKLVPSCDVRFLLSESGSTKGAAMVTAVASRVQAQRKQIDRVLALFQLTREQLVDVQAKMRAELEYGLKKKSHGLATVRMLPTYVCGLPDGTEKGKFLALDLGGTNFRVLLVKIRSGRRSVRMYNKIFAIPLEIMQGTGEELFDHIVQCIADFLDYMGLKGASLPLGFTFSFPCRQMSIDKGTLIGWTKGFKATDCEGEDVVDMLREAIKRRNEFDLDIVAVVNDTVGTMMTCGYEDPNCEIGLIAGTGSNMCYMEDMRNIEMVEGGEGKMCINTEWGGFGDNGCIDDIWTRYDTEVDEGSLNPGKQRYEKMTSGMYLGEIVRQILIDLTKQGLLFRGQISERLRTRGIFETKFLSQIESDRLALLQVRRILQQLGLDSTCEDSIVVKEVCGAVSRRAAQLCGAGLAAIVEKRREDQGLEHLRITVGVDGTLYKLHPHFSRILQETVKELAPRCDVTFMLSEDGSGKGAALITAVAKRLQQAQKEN
Nature of the test: HKDC1 hexokinase inhibitors, dose response, biochemical, W721R variant (AID 504729). Format: functional.

For another test, the target named is Aspartyl aminopeptidase (Plasmodium falciparum 3D7, UniProt Q8I2J3).
The next test has as its target Procathepsin L (Homo sapiens, UniProt P07711).
Test [7] addresses Luciferin 4-monooxygenase (Photinus pyralis, UniProt P08659). Nature of the test: firefly luciferase enzyme inhibitors, dose response, biochemical, luminescence (AID 1891).
Test [8] in a line: Luminescence Cell-Based Dose Confirmation HTS to Identify Inhibitors of Platelet Dense Granule Release. [Related pubchem assays: 1663 (Primary HTS), 1678 (Summary of Project)]. In kind it is functional.
A short description of test [9]: Luminescence-based counterscreen assay for KLF5 inhibitors: dose response cell-based high throughput screening assay to identify cytotoxic compounds using the IEC-6 intestinal epithelial cell line. [Related pubchem assays: 1700 (Primary screen.), 1834 (Confirmation screen.), 1858 (Summary AID.), 1905 (Counterscreen.)]. Format: functional.
Test [10] is described as follows: inhibition of ADP-Glo detection reagents, dose response, artefact control for CDK5 inhibitor project, biochemical, luminescence, cherry-picked samples, set 2 (AID 504546). In kind it is functional. Background: In ADP-Glo the light output rises with the ADP produced.
Test [11] deals with Cyclin-dependent kinase 5/CDK5 activator 1 (Homo sapiens, UniProt Q00535). Nature of the test: CDK5/p35 kinase inhibitors, dose response, biochemical, cherry-picked samples, set 2 (AID 504545).
Test [12] in a line: cytotoxicity in HEK-293T cells, dose response, cytotoxicity control for TCR NF-kB inhibitor project, luminescence, T-cell screen hits (AID 489026).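 Also: cells exposed to compound about 14 hours before the viability readout.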 In kind it is functional, cell-based.
A short description of test [13]: inhibitors of HIV Env-driven cell fusion, dose response, cherry-pick (AID 652057). In kind it is functional, cell-based.
A short description of test [14]: CEM21 lymphoblast cell cytotoxicity, dose response, cytotoxicity control for viral fusion inhibitor project, CellTiter-Glo luminescence, cherry-picked (AID 652042).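 Also: potency for signal decrease meaning cytotoxicity.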 Format: functional, cell-based. A general note: ATP-based viability assays read luminescence as a measure of living cells.
Test [15] is described as follows: ZM109 Env clade C HIV-1 fusion inhibitors, dose response, HeLa effector, CEM target cells, luciferase, cherry-pick (AID 652058). Format: functional, cell-based.
Test [16] is described as follows: off-target signal loss in HeLa-CEM21 co-culture – HeLa F-luc CTL cells, cherry-picked, counter-screen for HIV-1 Env fusion inhibitor project, dose response (AID 652040).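 Also: potency for signal decrease marking cytotoxic or nonspecific inhibition.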 In kind it is functional, cell-based.
Test [17] in a line: inhibitors of clade B AD8 Env fusion, dose response, cell-based, cherry-pick (AID 652062).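 Also: luciferase signal from cell-cell fusion driven by HIV-1 clade B AD8 Env; potency is for inhibitors of fusion seen as a drop in luminescence.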 In kind it is functional.
Another test deals with Cytochrome P450 3A4 (Homo sapiens, UniProt P08684). The conditions noted are these: Potency.

Calls of active or inactive are those of the source. Bounds are passed on as bounds.

Usually EC50 stands for the midpoint of the concentration-response curve. As usually defined, the AC50 is the midpoint of the concentration-response curve, whichever way the signal moves.
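For IC50 Mean in this document: confirmatory dose-response retesting of NadD inhibitor hits first found in an ultra-high-throughput screen.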

T3 sequence (P65502 whole entry): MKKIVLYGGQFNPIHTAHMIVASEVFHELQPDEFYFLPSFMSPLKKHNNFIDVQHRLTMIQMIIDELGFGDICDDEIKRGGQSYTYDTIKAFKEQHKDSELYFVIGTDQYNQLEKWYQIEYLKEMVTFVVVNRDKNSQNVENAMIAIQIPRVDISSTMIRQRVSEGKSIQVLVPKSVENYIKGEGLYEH
Chain of Induced myeloid leukemia cell differentiation protein Mcl-1 (Q07820 whole entry): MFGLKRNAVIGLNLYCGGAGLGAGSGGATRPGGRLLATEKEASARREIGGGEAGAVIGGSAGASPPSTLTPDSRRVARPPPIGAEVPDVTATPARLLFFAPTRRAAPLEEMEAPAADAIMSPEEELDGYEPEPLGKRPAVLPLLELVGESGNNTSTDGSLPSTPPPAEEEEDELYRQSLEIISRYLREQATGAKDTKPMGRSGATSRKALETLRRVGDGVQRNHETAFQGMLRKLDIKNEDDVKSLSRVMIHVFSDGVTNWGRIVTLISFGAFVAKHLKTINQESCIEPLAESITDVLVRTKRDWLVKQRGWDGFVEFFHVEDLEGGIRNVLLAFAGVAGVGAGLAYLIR
Chain of Cytochrome P450 2C9 (P11712 whole entry): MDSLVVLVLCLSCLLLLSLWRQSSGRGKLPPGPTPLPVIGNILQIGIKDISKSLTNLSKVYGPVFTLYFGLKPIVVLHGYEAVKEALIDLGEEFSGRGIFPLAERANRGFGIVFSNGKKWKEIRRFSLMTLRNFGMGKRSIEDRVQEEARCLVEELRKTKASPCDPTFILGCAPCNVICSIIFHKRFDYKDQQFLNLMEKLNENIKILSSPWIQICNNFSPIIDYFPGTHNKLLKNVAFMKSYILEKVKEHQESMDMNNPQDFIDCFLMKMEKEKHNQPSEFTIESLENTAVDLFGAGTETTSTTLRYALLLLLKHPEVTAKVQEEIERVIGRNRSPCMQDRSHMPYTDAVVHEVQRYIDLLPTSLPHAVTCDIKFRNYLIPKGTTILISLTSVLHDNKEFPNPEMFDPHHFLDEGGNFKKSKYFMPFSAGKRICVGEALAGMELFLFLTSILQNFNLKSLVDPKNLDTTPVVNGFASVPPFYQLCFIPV
Chain of Procathepsin L (P07711 whole entry): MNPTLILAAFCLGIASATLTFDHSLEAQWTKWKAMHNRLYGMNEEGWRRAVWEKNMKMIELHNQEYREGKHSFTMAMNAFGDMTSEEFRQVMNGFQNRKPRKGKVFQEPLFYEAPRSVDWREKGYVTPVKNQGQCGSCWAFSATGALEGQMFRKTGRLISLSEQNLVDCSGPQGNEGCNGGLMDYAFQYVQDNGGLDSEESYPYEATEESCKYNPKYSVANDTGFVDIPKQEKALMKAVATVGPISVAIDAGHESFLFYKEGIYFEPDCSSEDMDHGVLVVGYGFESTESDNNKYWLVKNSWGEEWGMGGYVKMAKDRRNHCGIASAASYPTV
Chain of Transitional endoplasmic reticulum ATPase (Homo sapiens, UniProt P55072) (P55072 whole entry): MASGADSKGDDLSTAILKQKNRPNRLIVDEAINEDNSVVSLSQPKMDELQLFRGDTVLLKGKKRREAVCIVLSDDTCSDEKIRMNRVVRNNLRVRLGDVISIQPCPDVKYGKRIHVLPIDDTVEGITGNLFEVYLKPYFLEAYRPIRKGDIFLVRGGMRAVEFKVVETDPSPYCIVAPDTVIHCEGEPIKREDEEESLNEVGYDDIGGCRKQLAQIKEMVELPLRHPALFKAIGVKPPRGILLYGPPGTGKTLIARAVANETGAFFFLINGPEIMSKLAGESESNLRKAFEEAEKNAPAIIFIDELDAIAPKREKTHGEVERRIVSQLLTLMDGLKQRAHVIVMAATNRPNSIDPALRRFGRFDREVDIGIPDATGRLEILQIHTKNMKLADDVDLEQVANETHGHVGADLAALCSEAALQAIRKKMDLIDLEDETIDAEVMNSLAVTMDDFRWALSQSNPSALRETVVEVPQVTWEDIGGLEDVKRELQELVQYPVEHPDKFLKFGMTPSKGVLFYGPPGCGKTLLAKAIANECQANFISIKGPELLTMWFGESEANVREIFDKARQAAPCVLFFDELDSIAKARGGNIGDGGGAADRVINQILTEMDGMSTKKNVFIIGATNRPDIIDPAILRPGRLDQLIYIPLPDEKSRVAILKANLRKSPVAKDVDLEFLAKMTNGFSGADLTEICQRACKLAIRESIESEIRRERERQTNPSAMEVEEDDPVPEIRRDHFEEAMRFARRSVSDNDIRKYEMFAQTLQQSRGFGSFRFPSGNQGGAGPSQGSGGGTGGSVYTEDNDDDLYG
Chain of Cyclin-dependent kinase 5/CDK5 activator 1 (Q00535 whole entry): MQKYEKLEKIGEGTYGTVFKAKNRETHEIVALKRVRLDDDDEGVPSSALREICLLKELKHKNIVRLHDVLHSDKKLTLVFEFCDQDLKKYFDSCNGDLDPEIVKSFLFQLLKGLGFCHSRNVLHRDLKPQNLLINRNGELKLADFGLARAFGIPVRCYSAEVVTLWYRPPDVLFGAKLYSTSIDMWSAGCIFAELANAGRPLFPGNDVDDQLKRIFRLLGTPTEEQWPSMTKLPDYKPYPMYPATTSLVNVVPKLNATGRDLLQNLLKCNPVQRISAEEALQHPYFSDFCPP
Chain of Cyclin-dependent kinase 5/CDK5 activator 1 (Q15078 whole entry, further chain): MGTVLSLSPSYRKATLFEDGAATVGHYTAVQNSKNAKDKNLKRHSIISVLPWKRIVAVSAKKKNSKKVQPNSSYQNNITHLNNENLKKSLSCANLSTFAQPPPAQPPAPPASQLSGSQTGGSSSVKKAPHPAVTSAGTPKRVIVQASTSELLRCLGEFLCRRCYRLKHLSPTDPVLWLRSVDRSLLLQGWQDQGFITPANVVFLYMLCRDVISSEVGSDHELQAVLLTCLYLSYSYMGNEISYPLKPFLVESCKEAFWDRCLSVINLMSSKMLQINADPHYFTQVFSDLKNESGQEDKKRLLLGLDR
Chain of Cytochrome P450 3A4 (P08684 whole entry): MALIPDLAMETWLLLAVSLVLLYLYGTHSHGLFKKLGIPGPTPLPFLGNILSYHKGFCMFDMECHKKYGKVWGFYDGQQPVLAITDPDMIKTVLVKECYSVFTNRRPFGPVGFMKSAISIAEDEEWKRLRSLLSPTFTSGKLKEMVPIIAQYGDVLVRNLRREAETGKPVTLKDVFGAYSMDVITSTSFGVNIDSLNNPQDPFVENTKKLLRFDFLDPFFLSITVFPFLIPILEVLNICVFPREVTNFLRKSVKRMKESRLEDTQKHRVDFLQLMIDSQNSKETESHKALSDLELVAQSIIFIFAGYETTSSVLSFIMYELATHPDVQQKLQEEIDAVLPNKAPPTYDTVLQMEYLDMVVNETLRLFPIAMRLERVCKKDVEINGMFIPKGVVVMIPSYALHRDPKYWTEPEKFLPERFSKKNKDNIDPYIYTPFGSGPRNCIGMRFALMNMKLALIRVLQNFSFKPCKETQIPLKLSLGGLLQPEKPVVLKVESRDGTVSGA
Chain of Transitional endoplasmic reticulum ATPase (Homo sapiens, UniProt P55072, C522A) (P55072 2-806 C522A limits assumed): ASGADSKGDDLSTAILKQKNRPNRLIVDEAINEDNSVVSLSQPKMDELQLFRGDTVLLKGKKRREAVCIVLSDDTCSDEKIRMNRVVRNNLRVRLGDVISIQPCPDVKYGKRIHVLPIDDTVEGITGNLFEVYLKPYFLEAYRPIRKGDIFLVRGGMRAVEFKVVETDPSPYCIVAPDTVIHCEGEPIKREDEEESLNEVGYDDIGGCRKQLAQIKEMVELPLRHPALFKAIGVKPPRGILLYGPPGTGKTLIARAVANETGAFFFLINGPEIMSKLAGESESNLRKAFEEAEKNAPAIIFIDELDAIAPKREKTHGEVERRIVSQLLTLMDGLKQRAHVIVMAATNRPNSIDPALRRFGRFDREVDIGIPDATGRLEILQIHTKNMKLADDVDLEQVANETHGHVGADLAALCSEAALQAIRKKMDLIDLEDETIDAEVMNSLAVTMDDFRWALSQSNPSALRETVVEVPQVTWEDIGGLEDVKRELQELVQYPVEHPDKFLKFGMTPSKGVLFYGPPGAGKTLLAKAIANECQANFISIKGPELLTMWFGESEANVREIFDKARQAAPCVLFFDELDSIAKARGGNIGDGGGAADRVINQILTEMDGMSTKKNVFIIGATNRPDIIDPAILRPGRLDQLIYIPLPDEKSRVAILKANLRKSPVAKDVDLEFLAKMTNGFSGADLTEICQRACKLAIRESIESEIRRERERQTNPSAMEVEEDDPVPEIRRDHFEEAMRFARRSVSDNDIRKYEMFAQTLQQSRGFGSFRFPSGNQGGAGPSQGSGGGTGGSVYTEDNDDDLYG
Chain of Luciferin 4-monooxygenase (P08659 whole entry): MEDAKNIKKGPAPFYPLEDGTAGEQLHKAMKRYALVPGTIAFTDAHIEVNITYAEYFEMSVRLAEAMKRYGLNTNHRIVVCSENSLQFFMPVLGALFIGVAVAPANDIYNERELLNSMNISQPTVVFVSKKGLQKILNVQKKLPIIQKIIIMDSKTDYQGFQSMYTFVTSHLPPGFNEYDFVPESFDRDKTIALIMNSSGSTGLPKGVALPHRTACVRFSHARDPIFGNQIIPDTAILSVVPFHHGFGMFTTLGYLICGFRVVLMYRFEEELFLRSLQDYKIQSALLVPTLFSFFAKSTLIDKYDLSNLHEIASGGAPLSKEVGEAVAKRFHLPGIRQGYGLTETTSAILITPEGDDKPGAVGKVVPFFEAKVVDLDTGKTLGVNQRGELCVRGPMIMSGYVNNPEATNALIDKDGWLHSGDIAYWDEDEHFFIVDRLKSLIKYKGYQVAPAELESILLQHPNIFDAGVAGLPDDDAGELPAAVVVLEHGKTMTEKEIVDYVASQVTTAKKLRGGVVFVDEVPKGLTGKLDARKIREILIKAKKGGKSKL

`O=c1cc(-c2ccc(O)c(-c3c(O)cc(O)c4c(=O)cc(-c5ccc(O)cc5)oc34)c2)oc2cc(O)cc(O)c12` [AMENTOFLAVONE]: the IC50 is 108 µM (active) on Aminopeptidase N; > 50 µM (not active) in test [2]; 8.98 µM (active) in [3]; 1.63 µM (active) in test [4]; 9.38 µM (active) in [5]; 29.4 µM (active) in test [6]. Moreover, the EC50 in test [1] is 1.68 µM (active); on Streptokinase A, > 150 µM (not active); in the test with Streptococcus, > 150 µM (not active).
As for `Clc1ccc([C@@H](c2ccccc2Cl)C(Cl)Cl)cc1`, the AC50 at Cytochrome P450 2C9 is 15.8 µM (inconclusive).
As to `C=CCn1c(SCC(=O)Nc2sc3c(c2C#N)CCC(C)C3)nc2cc(C(=O)O)ccc2c1=O` (stereo not given), the IC50 on Hexokinase HKDC1 is > 80 µM (inactive).
As for `O=C(Nc1ccc(Cl)cc1Cl)Nn1cnnc1`, the IC50 at Aspartyl aminopeptidase was 0.791 µM (active); on Procathepsin L it was > 59.6 µM (not active).
Regarding `Cc1ccc(C(=O)O/N=C(\N)c2ccccn2)c(Cl)c1`, the values for the EC50 in test [7] and in test [8] were 0.782 µM (active) and 1.2 µM (active), respectively. Further, the IC50 is 20.1 µM (not active) in test [9] and > 80 µM (inactive) in test [12]. For the same compound, the AC50 in test [10] is 92.9 µM (active); in test [11] it was 21.4 µM (active); in test [13], 3.44 µM (active); in [14], 17.3 µM (active); in test [15], 21.8 µM (active); in test [16], 9.61 µM (active). Further, the half-maximal activity concentration (AC50) in test [17] is 6.87 µM (active).
As to `N#C/C(=C\c1ccc(O)cc1)C(=O)O` [alpha-CYANO-4-HYDROXYCINNAMIC ACID], at Cytochrome P450 3A4, the half-maximal activity concentration (AC50) was 31.6 µM (inconclusive).
